According to US20050004186A1, “MEK inhibiting compounds” (Pfizer Inc, priority 2002, published 2005):

System: MEK
Test: Cellular assay for measuring MEK inhibition, C26CPA1 (inhibition of ERK phosphorylation in C26 cells)
Type: cell-based, murine
Conditions: for IC50: murine colon 26 (C26) carcinoma cells, one hour at 37 C; for C26CPA1 % Inhibition @ 0.1 μM / C26CPA1 % Inhibition @ 1 μM: C26 cells
Procedure: Cellular Assay for Measuring MEK Inhibition
MEK inhibitors were evaluated by determining their ability to inhibit phosphorylation of MAP kinase (ERK) in murine colon 26 (C26) carcinoma cells. Since ERK1 and ERK2 represent the only known substrates for MEK1 and MEK2, the measurement of inhibition of ERK phosphorylation in cells provides direct read out of cellular MEK inhibition by the compounds of the invention. Detection of phosphorylation of ERK was carried out either by Western blot or ELISA format. Briefly, the assays involve treatment of exponentially growing C26 cells with varying concentrations of the test compound (or vehicle control) for one hour at 37≡ C. For Western blot assay, cells were rinsed free of compound/vehicle and lysed in a solution containing 70 mM NaCl, 50 mM glycerol phosphate, 10 mM HEPES, […], 1% Triton X-100, 1 mM Na3VO4, 100 μM PMSF, 10 μM leupeptin and 10 μM pepstatin. Supernatants were then subjected to gel electrophoresis and hybridized to a primary antibody recognizing dually phosphorylated ERK1 and ERK2. To evaluate total MAPK levels, blots were subsequently ‘stripped’ and re-probed with a 1:1 mixture of polyclonal antibodies recognizing unphosphorylated ERK1 and ERK2. For pERK ELISA assay, pERK TiterZyme Enzyme immunometric Assay kits were acquired from Assay Designs, Inc (Ann Arbor, Mich.). Briefly, cells were harvested in lysis solution containing 50 mM β-glycerophosphate, 10 mM HEPES, pH7.4, 70 mM NaCl, 2 mM EDTA and 1% SDS and protein lysates were diluted 1:15 with supplied Assay buffer prior to the execution of the assay. The subsequent steps were carried out essentially as recommended by the manufacturer.

Structure (SMILES) | IC50 | C26CPA1 % Inhibition @ 0.1 μM | C26CPA1 % Inhibition @ 1 μM
Nc1nnc(-c2cc(Cl)c(F)c(F)c2Nc2ccc(I)cc2F)o1 [Example 2, 5-[5-Chloro-3,4-difluoro-2-(2-fluoro-4-iodo-phenylamino)-phenyl]-[1,3,4]oxadiazol-2-ylamine] | 18 nM | – | –
Nc1nnc(-c2ccc(F)c(F)c2Nc2ccc(Br)cc2F)o1 [Example 3, 5-[2-(4-Bromo-2-fluoro-phenylamino)-3,4-difluoro-phenyl]-[1.3,4]oxadiazol-2-ylamine] | 140 nM | – | –
Fc1cc(I)ccc1Nc1c(-c2nnc(NCCCN3CCOCC3)o2)ccc(F)c1F [Example 9, {5-[3,4-Difluoro-2-(2-fluoro-4-iodo-phenylamino)-phenyl]-[1,3,4]oxadiazol-2-yl}-(3-morpholin-4-yl-propyl)-amine] | 311 nM | – | –
CN(C)CCCN(C)c1nnc(-c2ccc(F)c(F)c2Nc2ccc(I)cc2F)o1 [Example 12, N-{5-[3,4-Difluoro-2-(2-fluoro-4-iodo-phenylamino)-phenyl]-[1,3,4]oxadiazol-2-yl}-N,N′,N′-trimethyl-propane-1,3-diamine] | > 1000 nM | – | –
Fc1cc(I)ccc1Nc1c(-c2nnc(NCCN3CCCCC3)o2)ccc(F)c1F [Example 13, {5-[3,4-Difluoro-2-(2-fluoro-4-iodo-phenylamino)-phenyl]-[1,3,4]oxadiazol-2-yl}-(2-piperidin-1-yl-ethyl)-amine] | 382 nM | – | –
NCCCCNc1nnc(-c2ccc(F)c(F)c2Nc2ccc(I)cc2F)o1 [Example 14, N′1′-{5-[3,4-Difluoro-2-(2-fluoro-4-iodo-phenylamino)-phenyl]-[1,3,4]oxadiazol-2-yl}-butane-1,4-diamine] | 45 nM | – | –
NCCCNc1nnc(-c2ccc(F)c(F)c2Nc2ccc(I)cc2F)o1 [Example 15, N′1′-{5-[3,4-Difluoro-2-(2-fluoro-4-iodo-phenylamino)-phenyl]-[1,3,4]oxadiazol-2-yl}-propane-1,3-diamine] | 76 nM | – | –
CN(C)CCCNc1nnc(-c2ccc(F)c(F)c2Nc2ccc(I)cc2F)o1 [Example 16, N-{5-[3,4-Difluoro-2-(2-fluoro-4-iodo-phenylamino)-phenyl]-[1,3,4]oxadiazol-2-yl}-N′,N′-dimethyl-propane-1,3-diamine] | 136 nM | – | –
CN(C)CCNc1nnc(-c2ccc(F)c(F)c2Nc2ccc(I)cc2F)o1 [Example 17, N-{5-[3,4-Difluoro-2-(2-fluoro-4-iodo-phenylamino)-phenyl]-[1,3,4]oxadiazol-2-yl}-N′,N′-dimethyl-ethane-1,2-diamine] | 140 nM | – | –
CNCCNc1nnc(-c2ccc(F)c(F)c2Nc2ccc(I)cc2F)o1 [Example 18, N-{5-[3,4-Difluoro-2-(2-fluoro-4-iodo-phenylamino)-phenyl]-[1,3,4]oxadiazol-2-yl}-N′-methyl-ethane-1,2-diamine] | 27 nM | – | –
COCCCNc1nnc(-c2ccc(F)c(F)c2Nc2ccc(I)cc2F)o1 [Example 20, {5-[3,4-Difluoro-2-(2-fluoro-4-iodo-phenylamino)-phenyl]-[1,3,4]oxadiazol-2-yl}-(3-methoxy-propyl)-amine] | 80 nM | – | –
COCCNc1nnc(-c2ccc(F)c(F)c2Nc2ccc(I)cc2F)o1 [Example 33, {5-[3,4-Difluoro-2-(2-fluoro-4-iodo-phenylamino)-phenyl]-[1,3,4]oxadiazol-2-yl}-(2-methoxy-ethyl)-amine] | – | 0% | 57.7%
Fc1cc(I)ccc1Nc1c(-c2nnc(NCCOc3ccccc3)o2)ccc(F)c1F [Example 34, {5-[3,4-Difluoro-2-(2-fluoro-4-iodo-phenylamino)-phenyl]-[1,3,4]oxadiazol-2-yl}-(2-phenoxy-ethyl)-amine] | – | 0% | 69%
Fc1cc(I)ccc1Nc1c(-c2nnc(NCCc3ccncc3)o2)ccc(F)c1F [Example 35, {5-[3,4-Difluoro-2-(2-fluoro-4-iodo-phenylamino)-phenyl]-[1,3,4]oxadiazol-2-yl}-(2-pyridin-4-yl-ethyl)-amine] | – | 0% | 74.9%
CCCCNc1nnc(-c2ccc(F)c(F)c2Nc2ccc(I)cc2F)o1 [Example 36, Butyl-{5-[3,4-difluoro-2-(2-fluoro-4-iodo-phenylamino)-phenyl]-[1,3,4]oxadiazol-2-yl}-amine] | – | 23.8% | 67%
Cc1ccc(CNc2nnc(-c3ccc(F)c(F)c3Nc3ccc(I)cc3F)o2)o1 [Example 37, {5-[3,4-Difluoro-2-(2-fluoro-4-iodo-phenylamino)-phenyl]-[1,3,4]oxadiazol-2-yl}-(5-methyl-furan-2-ylmethyl)-amine] | – | 18.4% | 87.2%
Fc1cc(I)ccc1Nc1c(-c2nnc(NCCc3cccs3)o2)ccc(F)c1F [Example 38, {5-[3,4-Difluoro-2-(2-fluoro-4-iodo-phenylamino)-phenyl]-[1,3,4]oxadiazol-2-yl}-(2-thiophen-2-yl-ethyl)-amine] | – | 0% | 65.1%
COc1cccc(CCNc2nnc(-c3ccc(F)c(F)c3Nc3ccc(I)cc3F)o2)c1 [Example 39, {5-[3,4-Difluoro-2-(2-fluoro-4-iodo-phenylamino)-phenyl]-[1,3,4]oxadiazol-2-yl}-[2-(3-methoxy-phenyl)-ethyl]-amine] | – | 0% | 40.2%
COc1ccc(CCNc2nnc(-c3ccc(F)c(F)c3Nc3ccc(I)cc3F)o2)cc1OC [Example 40, {5-[3,4-Difluoro-2-(2-fluoro-4-iodo-phenylamino)-phenyl]-[1,3,4]oxadiazol-2-yl}-[2-(3,4-dimethoxy-phenyl)-ethyl]-amine] | – | 0% | 26.2%
COc1ccc(OC)c(CCNc2nnc(-c3ccc(F)c(F)c3Nc3ccc(I)cc3F)o2)c1 [Example 41, {5-[3,4-Difluoro-2-(2-fluoro-4-iodo-phenylamino)-phenyl]-[1,3,4]oxadiazol-2-yl}-[2-(2,5-dimethoxy-phenyl)-ethyl]-amine] | – | 0% | 29.8%
COc1ccc(CCN(C)c2nnc(-c3ccc(F)c(F)c3Nc3ccc(I)cc3F)o2)cc1OC [Example 42, {5-[3,4-Difluoro-2-(2-fluoro-4-iodo-phenylamino)-phenyl]-[1,3,4]oxadiazol-2-yl}-[2-(3,4-dimethoxy-phenyl)-ethyl]-methyl-amine] | – | 8.3% | 10%
CN(CCc1ccncc1)c1nnc(-c2ccc(F)c(F)c2Nc2ccc(I)cc2F)o1 [Example 43, {5-[3,4-Difluoro-2-(2-fluoro-4-iodo-phenylamino)-phenyl]-[1,3,4]oxadiazol-2-yl}-methyl-(2-pyridin-4-yl-ethyl)-amine] | – | 26.6% | 31.7%
CN(CCc1ccccn1)c1nnc(-c2ccc(F)c(F)c2Nc2ccc(I)cc2F)o1 [Example 44, {5-[3,4-Difluoro-2-(2-fluoro-4-iodo-phenylamino)-phenyl]-[1,3,4]oxadiazol-2-yl}-methyl-(2-pyridin-2-yl-ethyl)-amine] | – | 5.2% | 19%
CCCNc1nnc(-c2ccc(F)c(F)c2Nc2ccc(I)cc2F)o1 [Example 45, {5-[3,4-Difluoro-2-(2-fluoro-4-iodo-phenylamino)-phenyl]-[1,3,4]oxadiazol-2-yl}-propyl-amine] | – | 3.1% | 31.4%
CCC(C)Nc1nnc(-c2ccc(F)c(F)c2Nc2ccc(I)cc2F)o1 (centres unmarked) [Example 46, sec-Butyl-{5-[3,4-difluoro-2-(2-fluoro-4-iodo-phenylamino)-phenyl]-[1,3,4]oxadiazol-2-yl}-amine] | – | 31.2% | 31.6%
CC(C)(C)CNc1nnc(-c2ccc(F)c(F)c2Nc2ccc(I)cc2F)o1 [Example 47, {5-[3,4-Difluoro-2-(2-fluoro-4-iodo-phenylamino)-phenyl]-[1,3,4]oxadiazol-2-yl}-(2,2-dimethyl-propyl)-amine] | – | 18.9% | 43.2%
CC(C)CNc1nnc(-c2ccc(F)c(F)c2Nc2ccc(I)cc2F)o1 [Example 48, {5-[3,4-Difluoro-2-(2-fluoro-4-iodo-phenylamino)-phenyl]-[1,3,4]oxadiazol-2-yl}-isobutyl-amine] | – | 31.7% | 66.9%
CC(Nc1nnc(-c2ccc(F)c(F)c2Nc2ccc(I)cc2F)o1)C(C)(C)C (centres unmarked) [Example 49, {5-[3,4-Difluoro-2-(2-fluoro-4-iodo-phenylamino)-phenyl]-[1,3,4]oxadiazol-2-yl}-(1,2,2-trimethyl-propyl)-amine] | – | 0% | 0%
CCC(C)CNc1nnc(-c2ccc(F)c(F)c2Nc2ccc(I)cc2F)o1 (centres unmarked) [Example 50, {5-[3,4-Difluoro-2-(2-fluoro-4-iodo-phenylamino)-phenyl]-[1,3,4]oxadiazol-2-yl}-(2-methyl-butyl)-amine] | – | 0% | 15.2%
